Test results from ChEMBL document CHEMBL1123826, “Nitrogen bridgehead compounds. 66. Bronchodilator nitrogen bridgehead compounds with a pyrimidinone moiety” (J Med Chem, 1987).

Tests used:
Format in all cases: functional
Conditions in all cases: read-out: ID50 (the source's name)
[1] = system: Cavia porcellus; experiment: Compound was tested for Bronchodilator activity against histamine-induced spasm in guinea pig by Konzett-Rossler test; dose administered by intraduodenal route.
[2] = system: Cavia porcellus; experiment: Compound was tested for Bronchodilator activity against serotonin-induced spasm in guinea pig by Konzett-Rossler test; dose administered by intraduodenal route.
[3] = system: Cavia porcellus; experiment: Compound was tested for Bronchodilator activity against acetylcholine-induced spasm in guinea pig by Konzett-Rossler tes; dose administered by intraduodenal route.

Measured: ED50

CC1CCCCc2nc3c(c(=O)n21)CCCC3 (stereo not drawn)
> 320 µmol/kg: [1] | [2] | [3]
